Data: patent US20110098288A1, “SULFONAMIDES AS ZAP-70 INHIBITORS” (priority 2008, published 2011)
Structures can show the parent of a compound that is named as a salt.

Experiments:
[1] = target: T1, ZAP-70 (Homo sapiens, UniProt P43403); test: ZAP-70 kinobeads assay; format: binding; settings: competition with immobilized aminopyrido-pyrimidine ligand 24 in cell lysate; ZAP-70 detected by dot blot
T1 construct: endogenous in cells; host or cells: cell lysate
T1 sequence (P43403 1-619): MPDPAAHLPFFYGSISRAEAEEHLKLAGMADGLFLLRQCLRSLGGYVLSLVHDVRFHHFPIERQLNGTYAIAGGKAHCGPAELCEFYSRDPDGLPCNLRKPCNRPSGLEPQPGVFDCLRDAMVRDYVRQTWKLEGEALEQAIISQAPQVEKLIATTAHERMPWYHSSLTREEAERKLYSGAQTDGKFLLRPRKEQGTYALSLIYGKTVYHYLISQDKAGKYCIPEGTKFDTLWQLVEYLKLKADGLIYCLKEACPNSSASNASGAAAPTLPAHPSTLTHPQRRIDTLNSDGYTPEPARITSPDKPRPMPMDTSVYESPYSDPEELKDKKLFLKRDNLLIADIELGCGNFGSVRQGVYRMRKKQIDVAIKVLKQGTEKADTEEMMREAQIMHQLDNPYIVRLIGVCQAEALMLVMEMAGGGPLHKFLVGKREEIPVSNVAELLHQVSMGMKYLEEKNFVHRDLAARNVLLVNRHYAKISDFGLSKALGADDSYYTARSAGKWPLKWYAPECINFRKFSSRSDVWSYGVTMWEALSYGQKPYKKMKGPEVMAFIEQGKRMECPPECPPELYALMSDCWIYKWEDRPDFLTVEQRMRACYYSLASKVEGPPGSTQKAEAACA
In short: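 Cell lysate aliquots incubated with test compounds at various concentrations plus affinity beads carrying immobilized aminopyrido-pyrimidine ligand 24. Bead-captured proteins eluted; ZAP-70 quantified by specific antibody dot blot with infrared detection.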

[2] = system: Jurkat cells; test: Calcium release assay (Fluo-4 flow cytometry after anti-CD3 stimulation); format: cell-based; settings: Homo sapiens, Jurkat cell line J77, anti-CD3 activation, read-out: IC50 (Calcium ion release in cells)
In short: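 Jurkat J77 cells loaded with Fluo-4/Pluronic F-127 for 30 min at 37 °C, then incubated with compound at room temperature in the dark in PBS–CaCl2 with 10% FCS. Stimulation with anti-CD3 (0.2 μg/ml final) plus GAM (0.75 μg/ml final) at 37 °C, then flow-cytometric Ca2+ fluorescence acquired for 200 s.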

SMILES | IC50 [1] [nM] | IC50 [2] [nM]
COc1cccc(Nc2ncc(F)c(Nc3ccccc3NS(C)(=O)=O)n2)c1 [Example 38, N-(2-(5-fluoro-2-(3-methoxyphenylamino)pyrimidin-4-ylamino)phenyl)methanesulfonamide] | 1000 to 10000 | 100 to 1000
Cc1cc(C)cc(Nc2ncc(F)c(Nc3ccccc3N(C)S(C)(=O)=O)n2)c1 [Example 72, N-(2-(2-(3,5-dimethylphenylamino)-5-fluoropyrimidin-4-ylamino)phenyl)-N-methylmethanesulfonamide] | 1000 to 10000 | 100 to 1000
CS(=O)(=O)Nc1ccccc1Nc1nc(Nc2ccc(NC(=O)CN3CCCC3)cc2)ncc1Cl [Example 132, N-(4-(5-chloro-4-(2-(methylsulfonamido)phenylamino)pyrimidin-2-ylamino)phenyl)-2-(pyrrolidin-1-yl)acetamide] | 100 to 1000 | < 100
COc1cc(Nc2ncc(F)c(Nc3ccc(N4CCOCC4)cc3NS(C)(=O)=O)n2)cc(OC)c1OC [Example 171, N-(2-(5-fluoro-2-(3,4,5-trimethoxyphenylamino)pyrimidin-4-ylamino)-5-morpholinophenyl)methanesulfonamide] | 100 to 1000 | 100 to 1000
Cc1cc(C)cc(Nc2ncc(C)c(Nc3ccccc3NS(C)(=O)=O)n2)c1 [Example 67, N-(2-(2-(3,5-dimethylphenylamino)-5-methylpyrimidin-4-ylamino)phenyl)methanesulfonamide] | 100 to 1000 | 100 to 1000
Cc1nc2cc(Nc3ncc(F)c(Nc4ccccc4NS(C)(=O)=O)n3)ccc2s1 [Example 18, N-(2-(5-fluoro-2-(2-methylbenzo[d]thiazol-5-ylamino)pyrimidin-4-ylamino)phenyl)methanesulfonamide] | 1000 to 10000 | 100 to 1000

Next, values leading:

IC50 [1] [nM] | IC50 [2] [nM] | SMILES
< 100 | 100 to 1000 | CCOc1cccc(Nc2nc(Nc3cc(OC)c(OC)c(OC)c3)ncc2F)c1NS(C)(=O)=O [Example 166, N-(2-ethoxy-6-(5-fluoro-2-(3,4,5-trimethoxyphenylamino)pyrimidin-4-ylamino)phenyl)methanesulfonamide]
100 to 1000 | 100 to 1000 | COc1cc(Nc2ncc(F)c(Nc3ccccc3NS(C)(=O)=O)n2)cc(OCCN2CCCC2)c1 [Example 94, N-(2-(5-fluoro-2-(3-methoxy-5-(2-(pyrrolidin-1-yl)ethoxy)phenylamino)pyrimidin-4-ylamino)phenyl)methanesulfonamide formate salt]
< 100 | 100 to 1000 | COc1cc(Nc2ncc(F)c(Nc3cccc(C)c3NS(C)(=O)=O)n2)cc(OCCN2CCCCC2)c1OC [Example 114, N-(2-(2-(3,4-dimethoxy-5-(2-(piperidin-1-yl)ethoxy)phenylamino)-5-fluoropyrimidin-4-ylamino)-6-methylphenyl)methanesulfonamide]
< 100 | 100 to 1000 | CS(=O)(=O)Nc1ccccc1Nc1nc(Nc2cccc(OCC3CCNCC3)c2)ncc1Cl [Example 129, N-(2-(5-chloro-2-(3-(piperidin-4-ylmethoxy)phenylamino)pyrimidin-4-ylamino)phenyl)methanesulfonamide]
100 to 1000 | 100 to 1000 | COc1cc(Nc2ncc(F)c(Nc3ccccc3NS(C)(=O)=O)n2)cc(OC)c1OC [Example 1, N-(2-(5-fluoro-2-(3,4,5-trimethoxyphenylamino)pyrimidin-4-ylamino)phenyl)methanesulfonamide]
100 to 1000 | 100 to 1000 | CS(=O)(=O)Nc1ccccc1Nc1nc(Nc2ccc(OCCN3CCOCC3)cc2)ncc1F [Example 86, N-(2-(5-fluoro-2-(4-(2-morholinoethoxy)phenylamino)pyrimidin-4-ylamino)phenyl)methanesulfonamide]
100 to 1000 | 100 to 1000 | CCNC(=O)COc1cccc(Nc2ncc(F)c(Nc3ccccc3NS(C)(=O)=O)n2)c1 [Example 101, N-ethyl-2-(3-(5-fluoro-4-(2-(methylsulfonamido)phenylamino)pyrimidin-2-ylamino)phenoxy)acetamide]
< 100 | < 100 | CCN(CC)CCOc1ccc(Nc2ncc(Cl)c(Nc3ccccc3NS(C)(=O)=O)n2)cc1 [Example 127, N-(2-(5-chloro-2-(4-(2-(diethylamino)ethoxy)phenylamino)pyrimidin-4-ylamino)phenyl)methanesulfonamide]
